According to patent publication US4977173A, “Aminomethyl oxooxazolidinyl ethenylbenzene derivatives useful as antibacterial agents” (E. I. Du Pont de Nemours and Company, priority 1989, dated 1990):
Converted amounts (≈) assume the structure as drawn. Like-named read-outs stand apart in the source and are kept apart here.

Experiments:
[1] = test system: Escherichia coli; assay: In vitro broth microdilution minimal inhibitory concentration (24-hour MIC), Escherichia coli; assay type: cell-based; conditions: Mueller-Hinton broth, standard microdilution; for MIC: read-out: Minimum Inhibitory Concentration
Description: (§1) As shown in Table VII compounds of formula I exert an in vitro antibacterial effect.

[2] = test system: Staphylococcus aureus; assay: In vitro broth microdilution minimal inhibitory concentration (24-hour MIC), Staphylococcus aureus; assay type: cell-based; conditions: Mueller-Hinton broth, standard microdilution; for MIC: read-out: Minimum Inhibitory Concentration
Description: as §1

[3] = test system: Staphylococcus aureus; assay: In vivo activity against Staphylococcus aureus in an acute lethal mouse model; conditions: mice infected intraperitoneally, dosed one and four hours post-infection, survival on seventh day
Protocol: Determinations of in vivo efficacy are performed by inoculating mice intraperitoneally with cultures of the infecting organism diluted to produce 100% mortality in control animals within twenty-four hours. The culture of S. aureus used to infect the animals was diluted to the required bacterial density using 5% aqueous hog gastric mucin. The compounds are dissolved or suspended in 0.25% aqueous Methocel® (Methocel®: Hydroxypropyl Methylcellulose, E15 Premium, Dow Chemical Company) for oral administration or sterile distilled water containing 5% dimethylsulfoxide (Fisher Scientific Company, Fairlawn, N.J.) for subcutaneous administration. The mice are dosed at one hour and at four hours post-infection. Mortality is recorded daily until test termination seven days post infection. The number of survivors in each treatment group on the seventh day after infection is used in the calculation of the ED50, the dose of compound that protects 50% of the mice (Litchfield, J. T. and Wildoxon. A simplified method for evaluating dose-effect experiments. J. Pharmacol Exp. Ther., 96:99-113, 1949).

[4] = Staphylococcus aureus, 168 h, Oral Administration, read-out: ED50
[5] = Staphylococcus aureus, sc, 168 h, Subcutaneous Administration, read-out: ED50
[6] = Subcutaneous Administration, 10080 min

Row | SMILES | MIC [1] [µg/mL] | MIC [2] [µg/mL] | ED50 [3, 4] [mg/kg] | ED50 [3, 5] [mg/kg] | Minimum Inhibitory Concentration [1] [µg/mL] | Minimum Inhibitory Concentration [2] [µg/mL] | ED50 ([3]; Oral Administration, 10080 min) [mg/kg] | ED50 [3, 6] [mg/kg]
1 | CC(=O)NCC1CN(c2ccc(/C(=C/C#N)c3ccccc3)cc2)C(=O)O1 (racemic) [Example 5] | > 128 | 32 (≈ 88.5 µM) | > 90 | > 90 |  |  |  | 
2 | CC(=O)NC[C@H]1CN(c2ccc(/C(C)=C/C#N)cc2)C(=O)O1 [Example 1, (l)-N-[3-[4-(E-1-Methyl-2-cyanoethenyl)phenyl]-2-oxooxazolidin-5-ylmethyl]acetamide] | > 128 | 1 (≈ 3.34 µM) | 1.3 | 0.8 |  |  |  | 
3 | CC(=O)NC[C@H]1CN(c2ccc(/C=C/C#N)cc2)C(=O)O1 [Example 2, (l)-N-[3-[4-(E-2-Cyanoethenyl)phenyl]-2-oxooxazolidin-5-ylmethyl]acetamide] | > 128 | 4 (≈ 14 µM) | 3.5 | 2.8 |  |  |  | 
4 | CC(=O)NC[C@H]1CN(c2ccc(/C(C)=C/C#N)c(C)c2)C(=O)O1 [Example 3] | > 128 | 2 (≈ 6.38 µM) | 6.4 | 5.1 |  |  |  | 
5 | CC(=O)NC[C@H]1CN(c2ccc(/C(=C/C#N)c3ccc(F)cc3)cc2)C(=O)O1 [Example 6] | > 128 | > 128 |  |  |  |  |  | 
6 | CC/C(=C\C#N)c1ccc(N2C[C@H](CNC(C)=O)OC2=O)cc1 [Example 7] | > 128 | 1 (≈ 3.19 µM) | 3.1 | 2.1 |  |  |  | 
7 | CCC/C(=C\C#N)c1ccc(N2C[C@H](CNC(C)=O)OC2=O)cc1 [Example 8] | > 128 | 2 (≈ 6.11 µM) | > 90 | > 90 |  |  |  | 
8 | CC(=O)NC[C@H]1CN(c2ccc(/C(C)=C(\C)C#N)cc2)C(=O)O1 [Example 9] | > 128 | 2 (≈ 6.38 µM) | 3.8 | 2.5 |  |  |  | 
9 | CC(=O)NC[C@H]1CN(c2ccc(/C(C)=C(/C)C#N)cc2)C(=O)O1 [Example 11] | > 128 | 8 (≈ 25.5 µM) |  |  |  |  |  | 
10 | CC(=O)NC[C@H]1CN(c2ccc(/C=C(\C)C#N)cc2)C(=O)O1 [Example 12] | > 128 | 1 (≈ 3.34 µM) | 2.9 | 1.9 |  |  |  | 
11 | CC(=O)NC[C@H]1CN(c2ccc(/C(C)=C\C#N)cc2)C(=O)O1 [Example 13] | > 128 | 8 (≈ 26.7 µM) |  |  |  |  |  | 
12 | CC(=O)NC[C@H]1CN(c2ccc(/C=C/[N+](=O)[O-])cc2)C(=O)O1 [Example 19, (l)-N-[3-[4-(E-Nitroethenyl)phenyl]-2-oxooxazolidin-5-ylmethyl]acetamide] | > 128 | 8 (≈ 26.2 µM) | > 90 | > 90 |  |  |  | 
13 | CC(=O)NC[C@H]1CN(c2ccc(/C=C(\C)[N+](=O)[O-])cc2)C(=O)O1 [Example 20, (l)-N-[3-[4-(E-2-Nitro-2-methylethenyl)phenyl]-2-oxooxazolidin-5-ylmethyl]acetamide] | > 128 | 0.1 (≈ 0.313 µM) | 14.1 | 9.1 |  |  |  | 
14 | CSC(C#N)=Cc1ccc(N2CC(CNC(C)=O)OC2=O)cc1 (centres unmarked) [Example 21, (l)-N-[3-(4-(2-Cyano-2-methylsulfenylethenyl)phenyl]-2-oxooxazolidin-5-ylmethyl]acetamide] |  |  |  |  | > 128 | 4 | > 90 | 11.8
15 | CCOC(=O)/C=C/c1ccc(N2C[C@H](CNC(C)=O)OC2=O)cc1 [Example 22, (l)-N-[3-[4-(E-2-Carboethoxyethenyl)-phenyl]-2-oxooxazolidin-5-ylmethyl]acetamide] | > 128 | 8 (≈ 24.1 µM) | > 90 | > 90 |  |  |  | 
16 | CC(=O)NC[C@H]1CN(c2ccc(/C(C)=C/C(N)=O)cc2)C(=O)O1 [Example 23, (l)-N-[3-[4-(E-1-Methyl-2-carbamidoethenyl)phenyl]-2-oxooxazolidin-5-ylmethyl]acetamide] | > 128 | 4 (≈ 12.6 µM) | 26.4 | 36.2 |  |  |  | 
17 | CSC=Cc1ccc(N2CC(CNC(C)=O)OC2=O)cc1 (centres unmarked) [Example 24, (l)-N-[3-[4-(2-Methylsulfenylethenyl)-phenyl]-2-oxooxazolidin-5-ylmethyl]acetamide] |  |  |  |  | > 128 | 8 | 33.3 | 14.6
18 | CC(=O)NC[C@H]1CN(c2ccc(/C=C/C=O)cc2)C(=O)O1 [Example 25, (l)-N-[3-[4-(E-2-Formylethenyl)phenyl]-2-oxooxazolidin-5-ylmethyl]acetamide] | > 128 | 0.5 (≈ 1.73 µM) | > 80 | > 80 |  |  |  | 
19 | CC(=O)NC[C@H]1CN(c2ccc(C=C(C#N)C#N)cc2)C(=O)O1 [Example 26] | > 128 | 16 (≈ 51.6 µM) | > 90 | > 90 |  |  |  | 
20 | CC(=O)NC[C@H]1CN(c2ccc(C=C(C(C)=O)C(C)=O)cc2)C(=O)O1 [Example 28] | > 128 | 16 (≈ 46.5 µM) | > 90 | > 90 |  |  |  | 
21 | CC/C(=C\c1ccc(N2C[C@H](CNC(C)=O)OC2=O)cc1)[N+](=O)[O-] [Example 29] | > 128 | 1 (≈ 3 µM) | > 90 | > 90 |  |  |  | 
22 | CCC/C(=C\c1ccc(N2C[C@H](CNC(C)=O)OC2=O)cc1)[N+](=O)[O-] [Example 30] | > 128 | 4 (≈ 11.5 µM) | > 90 | > 90 |  |  |  | 
23 | COC(=O)/C=C(\C)c1ccc(N2C[C@H](CNC(C)=O)OC2=O)cc1 [Example 58, (l)-N-[3-[4-(E-1-Methyl-2-carbomethoxyethenyl)phenyl]-2-oxooxazolidin-5-ylmethyl]acetamide] | > 128 | 2 (≈ 6.02 µM) |  | 46.2 |  |  |  | 
24 | COC(=O)/C=C/c1ccc(N2C[C@H](CNC(C)=O)OC2=O)cc1 [Example 59] | > 128 | 8 (≈ 25.1 µM) |  | > 90 |  |  |  | 
25 | CC(=O)/C=C/c1ccc(N2C[C@H](CNC(C)=O)OC2=O)cc1 [Example 60] | > 128 | 4 (≈ 13.2 µM) |  | 51.9 |  |  |  | 
26 | CC(=O)NC[C@H]1CN(c2ccc(/C=C/C(=O)N(C)C)cc2)C(=O)O1 [Example 61] | > 128 | 32 (≈ 96.6 µM) |  | 39.5 |  |  |  | 
27 | CC(=O)NC[C@H]1CN(c2ccc(/C=C/C(N)=O)cc2)C(=O)O1 [Example 62] | > 128 | 32 (≈ 105 µM) |  | 20.4 |  |  |  | 
28 | CC(=O)NC[C@H]1CN(c2ccc(C3=CC(=O)CCC3)cc2)C(=O)O1 [Example 68] | > 128 | 0.5 (≈ 1.52 µM) | 2.4 | 1.7 |  |  |  | 
